Test results reported in patent publication US9486440B2, “Uses of indole-ketones or indolidones as neuro-protective drugs” (UNIVERSITY OF MACAU, priority 2011, dated 2016).

Assays:
[1] = system: SH-SY5Y cells; assay: MPP+-induced neurotoxicity in SH-SY5Y cells, MTT assay; assay type: cell-based, human; details: for cell proliferative or cytotoxic effects of the drug alone, SH-SY5Y cells: alone for 26 hours, 10 μM SU4312, 3 μM PTK787/ZK222584, 0.3 μM sunitinib; for toxicity to SH-SY5Y cells at higher concentration: higher concentration (sunitinib 1 μM), data not shown; for MPP+-induced neuronal death in SH-SY5Y cells (MTT): pre-treatment 2 hours, then 1 mM MPP+ for 24 hours
Protocol: The human neuroblastoma SH-SY5Y cells were obtained from ATCC. The cells were maintained in supplemented Dulbecco's modified eagle medium (DMEM), 10% fetal bovine serum, 100 U/ml penicillin, and 100 μg/ml streptomycin in a 37° C., 5% CO2 incubator. PC12 pheochromocytoma cells were also obtained from ATCC. The cells were cultured in medium that consisted of DMEM, 10% heat-inactivated horse serum, 5% fetal bovine serum, 100 U/ml penicillin, and 100 μg/ml streptomycin in a 37° C., 5% CO2 incubator. All experiments were carried out 48 hours after the cells were seeded. […] The assay was performed according to the specifications of the manufacturer (MTT kit I; Roche Applied Science). […] After the incubation, 100 μl of the solvating solution (0.01 N HCl in 10% SDS solution) was added to each well for 16-20 hours. Absorbance of the samples was measured at a wavelength of 570 nm with 655 nm as a reference wavelength. Unless otherwise indicated, the extent of MTT conversion in cells exposed to MPP^+ is expressed as a percentage of the control.

[2] = system: PC12 cells; assay: MPP+-induced neurotoxicity in PC12 cells, MTT assay; assay type: cell-based; details: for cell proliferative or cytotoxic effects of the drug alone, PC12 cells: alone for 26 hours, 10 μM SU4312, 3 μM PTK787/ZK222584; for toxicity to PC12 cells at higher concentration: data not shown; for MPP+-induced neuronal death in PC12 cells (MTT): pre-treatment 2 hours, then 1 mM MPP+ for 24 hours, SU4312 10 μM, PTK787/ZK222584 3 μM
Protocol: The human neuroblastoma SH-SY5Y cells were obtained from ATCC. The cells were maintained in supplemented Dulbecco's modified eagle medium (DMEM), 10% fetal bovine serum, 100 U/ml penicillin, and 100 μg/ml streptomycin in a 37° C., 5% CO2 incubator. PC12 pheochromocytoma cells were also obtained from ATCC. The cells were cultured in medium that consisted of DMEM, 10% heat-inactivated horse serum, 5% fetal bovine serum, 100 U/ml penicillin, and 100 μg/ml streptomycin in a 37° C., 5% CO2 incubator. All experiments were carried out 48 hours after the cells were seeded.
The percentage of surviving neurons in the presence of SU4312 and/or MPP^+ was estimated by determining the activity of mitochondrial dehydrogenases with 3(4,5-dimethylthiazol-2-yl)-2.5-diphenyltetrazolium bromide (MTT) assay (Li et al., 2007). The assay was performed according to the specifications of the manufacturer (MTT kit I; Roche Applied Science). Briefly, the neurons were cultured in 96-well plates, 10 μl of 5 mg/ml MTT labeling reagent was added to each well containing cells in 100 μl of medium, and the plates were incubated for 4 hours in a humidified incubator at 37° C. After the incubation, 100 μl of the solvating solution (0.01 N HCl in 10% SDS solution) was added to each well for 16-20 hours. Absorbance of the samples was measured at a wavelength of 570 nm with 655 nm as a reference wavelength. Unless otherwise indicated, the extent of MTT conversion in cells exposed to MPP^+ is expressed as a percentage of the control.

[3] = system: DA neurons in the zebrafish brain; assay: MPTP zebrafish, whole-mount immunostaining against tyrosine hydroxylase; assay type: in vivo; details: 200 μM MPTP, 2 days from 1 dpf; SU4312 3-30 μM, PTK787/ZK222584 0.3-3 μM, SU5416 0.1-1 μM, VRI 0.03-0.3 μM
Protocol: Wild-type zebrafish (AB strain) and Tg (fli-1:EGFP) transgenic zebrafish were maintained as described in the Zebrafish Handbook (Westerfield, 1993). Zebrafish embryos were generated by natural pair-wise mating (3-12 months old) and raised at 28.5° C. in embryo medium (13.7 mM NaCl, 540 μM KCl, pH 7.4, 25 μM Na2HPO4, 44 μM KH2PO4, 300 μM CaCl2, 100 μM MgSO4, 420 μM NaHCO3, pH 7.4). […] An equal concentration of DMSO in embryo medium was used as vehicle control in each experiment.

[4] = system: intracellular NO; assay: Intracellular NO in CGNs after MPP+ (DAF-FM diacetate); assay type: cell-based, rat; details: 35 μM MPP+
Protocol: (§1) Intracellular NO was monitored with 4-Amino-5-methylamino-2′,7′-difluorofluorescein (DAF-FM) diacetate, a pH-insensitive fluorescent dye that emits increased fluorescence after reaction with an active intermediate of NO formed during the spontaneous oxidation of NO to NO2 (Sheng et al., 2005). DAF-FM solution was added to the culture medium (final concentration: 5 μM). After 30 min in a CO2 incubator, cultures were washed twice with PBS and incubated for an additional 30 min to allow complete de-esterification of the intracellular diacetate for stronger fluorescence. The DAF-FM fluorescence in CGNs was quantified by a multi-detection microplate reader using excitation and emission wavelengths of 495 nm and 515 nm, respectively. The measured fluorescence values were expressed as a percentage of the fluorescence in the control cells.
as §1, with “(4-amino-5-methylamino-2′,7′-difluorofluorescein) DAF-FM” for “4-Amino-5-methylamino-2′,7′-difluorofluorescein (DAF-FM)”, “After incubation for” for “After”, “another” for “an additional”, “strong” for “stronger”

Row | Compound | cell proliferative or cytotoxic effects of the drug alone, SH-SY5Y cells [1] | toxicity to SH-SY5Y cells at higher concentration [1] | MPP+-induced neuronal death in SH-SY5Y cells (MTT) [1] | MPP+-induced neuronal death in SH-SY5Y cells (MTT) ([1]; listed as PTK787) | cell proliferative or cytotoxic effects of the drug alone, PC12 cells [2] | toxicity to PC12 cells at higher concentration [2] | MPP+-induced neuronal death in PC12 cells (MTT) [2] | MPTP-induced loss of DA neurons / decrease of TH+ region area [3] | MPP+-stimulated NO production ([4]; measured at 8 hour) | MPP+-induced elevation of intracellular NO level ([4]; pre-treatment 2 hours, 24 hours, SU4312 3-30 μM, 7-NI 3-10 μM)
1 | Clc1ccc(Nc2nnc(Cc3ccncc3)c3ccccc23)cc1 [PTK787/ZK222584] | did not show cell proliferative or cytotoxic effects | at higher concentration conferred toxicity | at 3 μM failed to block neuronal loss induced by MPP^+ | at 1 and 3 μM failed to block neuronal loss induced by MPP^+ | did not show cell proliferative or cytotoxic effects | at higher concentration conferred toxicity | at 3 μM failed to block neuronal loss induced by MPP^+ |  |  | 
2 | Cc1cc(C)c(/C=C2\C(=O)Nc3ccccc32)[nH]1 [SU5416, (3Z)-3-[(3,5-dimethyl-1H-pyrrol-2-yl)methylidene]-1,3-dihydro-2H-indol-2-one] |  |  |  |  |  |  |  | significantly prevented the decrease in the area of TH^+ region induced by MPTP | antagonized the stimulatory effect of MPP^+ on the NO production with an efficacy similar to 7-nitroindazole (15 μM) | 
3 | CN(C)c1ccc(C=C2C(=O)Nc3ccccc32)cc1 [SU4312, 3-[4-(dimethylamino)benzylidenyl]indolin-2-one] | did not show cell proliferative or cytotoxic effects | at higher concentration conferred toxicity | prevented MPP^+-induced dopaminergic neuronal death at 3-10 μM in SH-SY5Y cells |  | did not show cell proliferative or cytotoxic effects | at higher concentration conferred toxicity | prevented MPP^+-induced dopaminergic neuronal death | significantly alleviated the loss of DA neurons |  | attenuated MPP^+-triggered elevation of intracellular NO level
